Results published in US20180185520A1, “COLLAGEN IMAGING COMPOSTIONS” (Collagen Medical, LLC, priority 2015, published 2018).

Tests used:
[1] = test system: liver fibrosis; assay: Detection of liver fibrosis by MRI, mouse CCl4 model; type: in vivo, C57BL/6 male mice; conditions: 10 μmol/kg i.v., out to 45 minutes, 7T
Experimental: Strain C57BL/6 male mice at approximately 3 weeks of age were purchased from Jackson Laboratory (Bar Harbor, Me.). All mice were randomly assigned to two groups: a control group (n=3) and a CCl4 group (n=8). Mice were treated three times a week for 10 weeks with either 0.04 mL of a 40 percent solution of CCl4 (Sigma, St. Louis, Mo.) in olive oil or with vehicle (olive oil only) by oral gavage. Animals from both models were imaged one week after the last injection. Mice were imaged on a 7T pre-clinical […] scanner (Bruker Biospin, Billerica, Mass.). Mice were imaged before and immediately after a 10 μmol/kg intravenous injection of COMPOUND ID NO. 1 and imaging was repeated out to 45 minutes post-injection. Following imaging, animals were sacrificed 50 min post COMPOUND ID NO. 1 injection and sections of each of the liver lobes were taken for gadolinium analysis by ICP-MS, hydroxyproline (Hyp) determination, and histology (Sirius Red staining). From the MRI data, the contrast to noise ratio (CNR, where CNR=(signal liver-signal muscle)/noise) was calculated for the liver before and at repeated time points after 10 μmol/kg injection of the COMPOUND ID NO. 1. After probe COMPOUND ID NO. […] Plots of CNR as a function of time post injection were made and the area under this CNR vs time curve was calculated. […] 1 in liver as assessed by gadolinium measurement (R^2=0.83). […]

[2] = test system: liver fibrosis; assay: Detection of liver fibrosis by MRI, rat bile duct ligation model; type: in vivo, male CD rats; conditions: 10 μmol/kg i.v., 30 minutes, 1.5 tesla
Excerpt: Liver fibrosis was induced in male CD rats (n=8) by ligation of the common bile duct (Charles River Labs, Wilmington, Mass.). Control animals (n=12) underwent a control procedure. Rats were imaged 19 days following ligation. Rats were imaged on a 1.5-tesla clinical MRI scanner (Siemens Healthcare, Malvern, Pa.) using a home-built, transmit-receive solenoid coil. Animals were anesthetized with 1-2% isoflurane and respiration rate was monitored with a small animal physiological monitoring system (SA Instruments, Inc., Stony Brook, N.Y.). Respiratory-gated, 3D Inversion Recovery (IR) Fast Low Angle Shot (FLASH) images were acquired prior to and 30 minutes following intravenous administration of 10 μmol/kg COMPOUND ID NO. 1. A non-selective inversion pulse was used and images were acquired with inversion recovery times of 50, 100, 200, 250, 300, 400 and 1000 ms. Image acquisition parameters consisted of an echo time of TE=2.44 ms, field-of-view FOV=120×93 mm, matrix=192×150 (0.625 mm in-plane resolution), slice thickness=0.6 mm, and 36 image slices. […] Following imaging, animals were sacrificed and liver tissue was subjected to pathologic scoring of fibrosis and analyzed for hydroxyproline content. […]
Liver fibrosis was detected by MRI by measuring the change in liver R1 after injection of COMPOUND ID NO. […]

## CC(C)C[C@H](NC(=O)[C@@H]1CSSC[C@H](NC(=O)[C@H](Cc2c[nH]cn2)NC(=O)[C@H](Cc2c[nH]c3ccccc23)NC(=O)[C@H](CCCCNC(=O)CC[C@H](C(=O)O)N2CCN(CC(=O)O)CCN(CC(=O)O)CCN(CC(=O)O)CC2)NC(=O)CNC(=O)CC[C@H](C(=O)O)N2CCN(CC(=O)O)CCN(CC(=O)O)CCN(CC(=O)O)CC2)C(=O)N[C@@H]([C@@H](C)O)C(=O)N[C@@H]([C@@H](C)O)C(=O)N[C@@H](CCCCNC(=O)CC[C@H](C(=O)O)N2CCN(CC(=O)O)CCN(CC(=O)O)CCN(CC(=O)O)CC2)C(=O)N[C@@H](Cc2ccccc2)C(=O)N2CCC[C@H]2C(=O)N[C@@H](Cc2c[nH]cn2)C(=O)N[C@@H](Cc2c[nH]cn2)C(=O)N[C@@H](Cc2ccc(O)cc2)C(=O)N1)C(=O)N[C@@H](Cc1ccc(O)cc1)C(=O)N[C@@H](Cc1ccc(-c2ccccc2)cc1)C(N)=O [Compound ID No. 1]
[1]; CCl4 treated mice
  area under the CNR vs time curve (liver): 1447±192
[1]; vehicle (olive oil) treated control mice given the probe
  area under the CNR vs time curve (liver): 889±173
[2]; BDL animals, 19 days after ligation
  ΔR1 (change in liver R1 after injection): 0.49 ± 0.22 s⁻¹
[2]; sham animals
  ΔR1 (change in liver R1 after injection): 0.15 ± 0.14 s⁻¹
